This is an account of results in patent US20180153830A1, “SELECTIVE INHIBITORS OF UNDIFFERENTIATED CELLS” (Yissum Research Development Company of the Hebrew …, priority 2012, published 2018).

The test system of assay [1] is protein synthesis in BJ fibroblasts. Nature of the assay: 35S-Met metabolic labeling of protein synthesis, fibroblasts. The class given is cell-based, human. Conditions: 12 hours, 20 μM. As for the experimental part: H9 embryonic stem cells were seeded in Matrigel™ pre-coated 6-well tissue culture plates at a density of 2×10^5 cells/well, and cultured using mTeSR1 defined medium. BJ fibroblasts were seeded in 6-well tissue culture plate at the same density, and cultured with DMEM supplemented with 10% FBS, penicillin (50 U/ml) and streptomycin (50 μg/ml). Cells were treated for 12 hours with either 20 μM PluriSIn #1 (isonicotinic acid N′-phenylhydrazide) or with 0.2% DMSO. Cells were then washed with PBS, and replenished with methionine-deficient medium for 1 hour. Metabolic labeling of the cells was then performed for 1 hour with 10 μCi of […] methionine in 1 ml/well, in the presence of 20 μM PluriSIn #1 or 0.2% DMSO. Cells were washed with PBS containing 10 mM methionine, and were then lysed in 0.4 ml of 30% ice-cold trichloroacetic acid (TCA) containing 10 mM methionine for 15 minutes. […] Total protein concentration was determined using a Bradford Protein Assay (Sigma-Aldrich), and the radioactivity measurements were normalized accordingly. […]
The similarity between PSIs and PluriSIn #1 and #6 is consistent with the fact that UPR can lead to translational attenuation. In order to confirm this link, the effect of PluriSIn #1 treatment on protein synthesis was determined. […]

The target of a further assay is T1, SCD1 (Homo sapiens, UniProt O00767).
T1 sequence (O00767 1-359): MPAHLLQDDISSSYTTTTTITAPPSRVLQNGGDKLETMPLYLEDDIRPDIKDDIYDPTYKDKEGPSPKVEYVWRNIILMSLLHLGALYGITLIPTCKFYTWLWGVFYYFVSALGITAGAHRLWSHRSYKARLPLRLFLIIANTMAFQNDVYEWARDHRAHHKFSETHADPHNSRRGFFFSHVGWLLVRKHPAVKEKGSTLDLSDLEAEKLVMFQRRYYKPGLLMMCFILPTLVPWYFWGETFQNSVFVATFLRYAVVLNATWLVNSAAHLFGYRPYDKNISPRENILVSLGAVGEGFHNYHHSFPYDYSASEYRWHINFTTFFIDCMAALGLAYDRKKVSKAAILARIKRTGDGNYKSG
Nature of the assay: SCD1 activity measurement ([1-14C] stearic acid pulse-chase labeling). Type of assay: cell-based. More on the design: PluriSIn #1 decreased SCD1 activity by approximately 65% decrease in ES cells; endogenous in cells; host or cells: human embryonic stem cells (H9, printed '1-19'). As to conditions: 20 μM, 12 hours. As to the method:
Cells were plated in 6-well plates at a density of 50,000 to 100,000 cells per well. 24 hours later, 20 μM of PluriSIn #1 (isonicotinic acid N′-phenylhydrazide) or 0.2% DMSO (control) were added to the cells. After 12 hours of incubation at 37° C., under 5% CO2, the old medium was removed, cells were washed with PBS, and new medium containing 2.3 μM of 0.75 μCi of [1-^14C] stearic acid was added. The cells were then incubated for up to 4 hours at 37° C., under 5% CO2.
After the incubation period, the medium was discarded and the cells were washed 3 times with 2 ml of PBS. 2 ml of an n-hexane:isopropanol mixture (3:2 v:v) were added, and the cells were then incubated for 30 minutes at a temperature of 37° C., under 5% CO2. […] The free fatty acids were detected by ultraviolet illumination after spraying the TLC with a 2′,7′-dichlorofluorescein solution. The spots corresponding to stearic and oleic acid were scraped and the radioactivity counted in a Packard Tri-Carb® 1600TR scintillating counter. SCD1 desaturase activity was calculated from the percent conversion of substrate to product and the conversion to picomoles per minute per 10^6 cells. […]
In order to directly examine whether PluriSin #1 inhibits SCD activity, and whether this inhibition is restricted to pluripotent cells, SCD1 activity was measured by a pulse-chase labeling assay, as described in the Materials and Methods section. […]

In the case of `O=C(NNc1ccccc1)c1ccncc1` [PluriSIn #1, isonicotinic acid N′-phenylhydrazide], in assay [1], the “effect on protein synthesis, differentiated cells (fibroblasts)” value is reported as “no effect”. Also, on SCD1, the “decrease in SCD1 activity in ES cells” value is reported as “approximately 65%”.
